Measurements published in ChEMBL document CHEMBL2434896, “Carbonic anhydrase inhibitors. Synthesis of heterocyclic 4-substituted pyridine-3-sulfonamide derivatives and their inhibition of the human cytosolic isozymes I and II and transmembrane tumor-associated isozymes IX and XII” (Eur J Med Chem, 2013).
Calls of active or inactive are those of the source. The rule behind the calls is not given here.

Columns and labels:
LOX IMVI = assay: Growth inhibition of human LOXIMVI cells at 10 uM after 48 hrs by sulforhodamine B assay; assay type: functional
U-251 = assay: Growth inhibition of human U251 cells at 10 uM after 48 hrs by sulforhodamine B assay; assay type: functional; details: U-251, 48 h, read-out: GI
SNB-75 = assay: Growth inhibition of human SNB75 cells at 10 uM after 48 hrs by sulforhodamine B assay; assay type: functional; details: SNB-75, 48 h, read-out: GI
SNB-19 = assay: Growth inhibition of human SNB19 cells at 10 uM after 48 hrs by sulforhodamine B assay; assay type: functional
SF-539 = assay: Growth inhibition of human SF539 cells at 10 uM after 48 hrs by sulforhodamine B assay; assay type: functional
SF-295 = assay: Growth inhibition of human SF295 cells at 10 uM after 48 hrs by sulforhodamine B assay; assay type: functional
SF-268 = assay: Growth inhibition of human SF268 cells at 10 uM after 48 hrs by sulforhodamine B assay; assay type: functional
KM12 = assay: Growth inhibition of human KM12 cells at 10 uM after 48 hrs by sulforhodamine B assay; assay type: functional
SW-620 = assay: Growth inhibition of human SW620 cells at 10 uM after 48 hrs by sulforhodamine B assay; assay type: functional
HT-29 = assay: Growth inhibition of human HT-29 cells at 10 uM after 48 hrs by sulforhodamine B assay; assay type: functional
HCT-15 = assay: Growth inhibition of human HCT15 cells at 10 uM after 48 hrs by sulforhodamine B assay; assay type: functional
HCT-116 = assay: Growth inhibition of human HCT116 cells at 10 uM after 48 hrs by sulforhodamine B assay; assay type: functional
[1] = Growth inhibition of human HCC2998 cells at 10 uM after 48 hrs by sulforhodamine B assay; assay type: functional; details: HCC 2998, 48 h, read-out: GI
COLO 205 = assay: Growth inhibition of human COLO205 cells at 10 uM after 48 hrs by sulforhodamine B assay; assay type: functional
NCI-H522 = assay: Growth inhibition of human NCI-H522 cells at 10 uM after 48 hrs by sulforhodamine B assay; assay type: functional; details: NCI-H522, 48 h, read-out: GI
NCI-H460 = assay: Growth inhibition of human NCI-H460 cells at 10 uM after 48 hrs by sulforhodamine B assay; assay type: functional
NCI-H23 = assay: Growth inhibition of human NCI-H23 cells at 10 uM after 48 hrs by sulforhodamine B assay; assay type: functional
NCI-H226 = assay: Growth inhibition of human NCI-H226 cells at 10 uM after 48 hrs by sulforhodamine B assay; assay type: functional
HOP-92 = assay: Growth inhibition of human HOP92 cells at 10 uM after 48 hrs by sulforhodamine B assay; assay type: functional; details: HOP-92, 48 h, read-out: GI
HOP-62 = assay: Growth inhibition of human HOP62 cells at 10 uM after 48 hrs by sulforhodamine B assay; assay type: functional
EKVX = assay: Growth inhibition of human EKVX cells at 10 uM after 48 hrs by sulforhodamine B assay; assay type: functional
A549 = assay: Growth inhibition of human A549/ATCC cells at 10 uM after 48 hrs by sulforhodamine B assay; assay type: functional
SR = assay: Growth inhibition of human SR cells at 10 uM after 48 hrs by sulforhodamine B assay; assay type: functional; details: read-out: GI
RPMI-8226 = assay: Growth inhibition of human RPMI8226 cells at 10 uM after 48 hrs by sulforhodamine B assay; assay type: functional
MOLT-4 = assay: Growth inhibition of human MOLT4 cells at 10 uM after 48 hrs by sulforhodamine B assay; assay type: functional; details: MOLT-4, 48 h, read-out: GI
HL-60(TB) = assay: Growth inhibition of human HL-60(TB) cells at 10 uM after 48 hrs by sulforhodamine B assay; assay type: functional; details: HL-60, 48 h, read-out: GI
CCRF-CEM = assay: Growth inhibition of human CCRF-CEM cells at 10 uM after 48 hrs by sulforhodamine B assay; assay type: functional; details: read-out: GI
Carbonic anhydrase 9 = Carbonic anhydrase 9 (Homo sapiens, UniProt Q16790); assay: Inhibition of human carbonic anhydrase 9 after 15 mins by stopped flow CO2 hydration assay
MDA-MB-468 = assay: Growth inhibition of human MDA-MB-468 cells at 10 uM after 48 hrs by sulforhodamine B assay; assay type: functional
T47D = assay: Growth inhibition of human T47D cells at 10 uM after 48 hrs by sulforhodamine B assay; assay type: functional
BT-549 = assay: Growth inhibition of human BT549 cells at 10 uM after 48 hrs by sulforhodamine B assay; assay type: functional
Hs-578T = assay: (§1) Growth inhibition of human Hs 578T cells at 10 uM after 48 hrs by sulforhodamine B assay; assay type: functional
MDA-MB-231 = assay: Growth inhibition of human MDA-MB-231 cells at 10 uM after 48 hrs by sulforhodamine B assay; assay type: functional
MCF7 = assay: Growth inhibition of human MCF7 cells at 10 uM after 48 hrs by sulforhodamine B assay; assay type: functional
DU-145 = assay: Growth inhibition of human DU145 cells at 10 uM after 48 hrs by sulforhodamine B assay; assay type: functional
TK-10 = assay: Growth inhibition of human TK10 cells at 10 uM after 48 hrs by sulforhodamine B assay; assay type: functional
SN12C = assay: Growth inhibition of human SN12C cells at 10 uM after 48 hrs by sulforhodamine B assay; assay type: functional
RXF 393 = assay: Growth inhibition of human RXF393 cells at 10 uM after 48 hrs by sulforhodamine B assay; assay type: functional
CAKI-1 = assay: Growth inhibition of human CAKI-1 cells at 10 uM after 48 hrs by sulforhodamine B assay; assay type: functional
ACHN = assay: Growth inhibition of human ACHN cells at 10 uM after 48 hrs by sulforhodamine B assay; assay type: functional
786-0 = assay: Growth inhibition of human 786-0 cells at 10 uM after 48 hrs by sulforhodamine B assay; assay type: functional
SK-OV-3 = assay: Growth inhibition of human SKOV3 cells at 10 uM after 48 hrs by sulforhodamine B assay; assay type: functional
NCI/ADR-RES = assay: Growth inhibition of human NCI-ADR-RES cells at 10 uM after 48 hrs by sulforhodamine B assay; assay type: functional
OVCAR-8 = assay: Growth inhibition of human OVCAR8 cells at 10 uM after 48 hrs by sulforhodamine B assay; assay type: functional
OVCAR-5 = assay: Growth inhibition of human OVCAR5 cells at 10 uM after 48 hrs by sulforhodamine B assay; assay type: functional
OVCAR-3 = assay: Growth inhibition of human OVCAR3 cells at 10 uM after 48 hrs by sulforhodamine B assay; assay type: functional
UACC-62 = assay: Growth inhibition of human UACC62 cells at 10 uM after 48 hrs by sulforhodamine B assay; assay type: functional; details: UACC-62, 48 h, read-out: GI
UACC-257 = assay: Growth inhibition of human UACC257 cells at 10 uM after 48 hrs by sulforhodamine B assay; assay type: functional
SK-MEL-5 = assay: Growth inhibition of human SK-MEL-5 cells at 10 uM after 48 hrs by sulforhodamine B assay; assay type: functional
SK-MEL-28 = assay: Growth inhibition of human SK-MEL-28 cells at 10 uM after 48 hrs by sulforhodamine B assay; assay type: functional, cell-based
SK-MEL-2 = assay: Growth inhibition of human SK-MEL-2 cells at 10 uM after 48 hrs by sulforhodamine B assay; assay type: functional
MDA-MB-435 = assay: Growth inhibition of human MDA-MB-435 cells at 10 uM after 48 hrs by sulforhodamine B assay; assay type: functional
M14 = assay: Growth inhibition of human M14 cells at 10 uM after 48 hrs by sulforhodamine B assay; assay type: functional
[2] = as §1; assay type: functional; details: read-out: GI

## CSc1nc(N)n(-c2ccncc2S(N)(=O)=O)n1
LOX IMVI
  growth inhibition (GI): inactive
U-251
  inhibition of growth at 10 µM: 6%
SNB-75
  inhibition of growth at 10 µM: 7%
SNB-19
  growth inhibition (GI): inactive
SF-539
  growth inhibition (GI): inactive
SF-295
  growth inhibition (GI): inactive
SF-268
  growth inhibition (GI): inactive
KM12
  growth inhibition (GI): inactive
SW-620
  growth inhibition (GI): inactive
HT-29
  growth inhibition (GI): inactive
HCT-15
  growth inhibition (GI): inactive
HCT-116
  growth inhibition (GI): inactive
[1]
  inhibition of growth at 10 µM: 10%
COLO 205
  growth inhibition (GI): inactive
NCI-H522
  inhibition of growth at 10 µM: 1%
NCI-H460
  growth inhibition (GI): inactive
NCI-H23
  growth inhibition (GI): inactive
NCI-H226
  growth inhibition (GI): inactive
HOP-92
  inhibition of growth at 10 µM: 20%
HOP-62
  growth inhibition (GI): inactive
EKVX
  growth inhibition (GI): inactive
A549
  growth inhibition (GI): inactive
SR
  inhibition of growth at 10 µM: 10%
RPMI-8226; RPMI-8226, 48 h, read-out: GI
  inhibition of growth at 10 µM: 2%
MOLT-4
  inhibition of growth at 10 µM: 1%
HL-60(TB)
  inhibition of growth at 10 µM: 3%
CCRF-CEM
  inhibition of growth at 10 µM: 8%
Carbonic anhydrase 9
  Ki: 65.4 nM
MDA-MB-468
  growth inhibition (GI): inactive
T47D
  growth inhibition (GI): inactive
BT-549
  growth inhibition (GI): inactive
Hs-578T
  growth inhibition (GI): inactive
MDA-MB-231; MDA-MB-231, 48 h, read-out: GI
  inhibition of growth at 10 µM: 1%
MCF7
  growth inhibition (GI): inactive
DU-145
  growth inhibition (GI): inactive
TK-10
  growth inhibition (GI): inactive
SN12C
  growth inhibition (GI): inactive
RXF 393
  growth inhibition (GI): inactive
CAKI-1
  growth inhibition (GI): inactive
ACHN
  growth inhibition (GI): inactive
786-0
  growth inhibition (GI): inactive
SK-OV-3
  growth inhibition (GI): inactive
NCI/ADR-RES
  growth inhibition (GI): inactive
OVCAR-8
  growth inhibition (GI): inactive
OVCAR-5
  growth inhibition (GI): inactive
OVCAR-3
  growth inhibition (GI): inactive
UACC-62
  inhibition of growth at 10 µM: 4%
UACC-257; UACC-257, 48 h, read-out: GI
  inhibition of growth at 10 µM: 7%
SK-MEL-5
  growth inhibition (GI): inactive
SK-MEL-28
  growth inhibition (GI): inactive
SK-MEL-2
  growth inhibition (GI): inactive
MDA-MB-435
  growth inhibition (GI): inactive
M14
  growth inhibition (GI): inactive

## Cc1nn(-c2ccncc2S(N)(=O)=O)c(C)c1C
U-251
  inhibition of growth at 10 µM: 1%
SNB-75
  inhibition of growth at 10 µM: 6%
SNB-19; SNB-19, 48 h, read-out: GI
  inhibition of growth at 10 µM: 1%
SF-539
  growth inhibition (GI): inactive
SF-295
  growth inhibition (GI): inactive
SF-268
  growth inhibition (GI): inactive
KM12
  growth inhibition (GI): inactive
SW-620; SW-620, 48 h, read-out: GI
  inhibition of growth at 10 µM: 12%
HT-29
  growth inhibition (GI): inactive
HCT-15
  growth inhibition (GI): inactive
HCT-116
  growth inhibition (GI): inactive
COLO 205
  growth inhibition (GI): inactive
NCI-H522
  inhibition of growth at 10 µM: 3%
NCI-H460
  growth inhibition (GI): inactive
NCI-H226
  growth inhibition (GI): inactive
HOP-92
  inhibition of growth at 10 µM: 25%
HOP-62
  growth inhibition (GI): inactive
EKVX
  growth inhibition (GI): inactive
A549
  growth inhibition (GI): inactive
SR
  inhibition of growth at 10 µM: 16%
RPMI-8226
  growth inhibition (GI): inactive
MOLT-4
  inhibition of growth at 10 µM: 5%
HL-60(TB)
  inhibition of growth at 10 µM: 9%
CCRF-CEM
  inhibition of growth at 10 µM: 6%
Carbonic anhydrase 9
  Ki: 23.1 nM
MDA-MB-468
  growth inhibition (GI): inactive
T47D
  growth inhibition (GI): inactive
BT-549; BT-549, 48 h, read-out: GI
  inhibition of growth at 10 µM: 4%
[2]
  inhibition of growth at 10 µM: 20%
MDA-MB-231
  growth inhibition (GI): inactive
MCF7; MCF7, 48 h, read-out: GI
  inhibition of growth at 10 µM: 4%
DU-145
  growth inhibition (GI): inactive
TK-10
  growth inhibition (GI): inactive
SN12C; read-out: GI
  inhibition of growth at 10 µM: 9%
RXF 393
  growth inhibition (GI): inactive
CAKI-1
  growth inhibition (GI): inactive
ACHN
  growth inhibition (GI): inactive
786-0
  growth inhibition (GI): inactive
SK-OV-3
  growth inhibition (GI): inactive
OVCAR-8
  growth inhibition (GI): inactive
OVCAR-5
  growth inhibition (GI): inactive
OVCAR-3
  growth inhibition (GI): inactive
UACC-62
  inhibition of growth at 10 µM: 3%
UACC-257
  growth inhibition (GI): inactive
SK-MEL-5; SK-MEL-5, 48 h, read-out: GI
  inhibition of growth at 10 µM: 3%
SK-MEL-28
  growth inhibition (GI): inactive
SK-MEL-2
  growth inhibition (GI): inactive
MDA-MB-435
  growth inhibition (GI): inactive
M14; M14, 48 h, read-out: GI
  inhibition of growth at 10 µM: 2%
